In patent publication US20230085307A1, “PYRIDAZINONE COMPOUND AND HERBICIDE” (NISSAN CHEMICAL CORPORATION, priority 2019, published 2023):

Experiments:
barnyard grass [1] = assay: Test Example 3: herbicidal effect by foliage application, Wagner pot (Table 18, symbol H); assay type: in vivo, barnyard grass (Echinochloa crus-galli)
Method in brief: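 Plants were sown in alluvial soil held under 0.1–0.5 cm standing water and grown 14 days in a greenhouse at 25–30 °C. An emulsifiable formulation, water-diluted to the set dose, was then sprayed onto the foliage, and effects were scored three weeks later using previously defined criteria.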

chickweed [2] = assay: Test Example 5: herbicidal effect by foliage application, plastic box (Table 20, symbol P); assay type: in vivo, common chickweed (Stellaria media); conditions: for P: chickweed, herbicidal effect grade: foliage application, three weeks after application
Method in brief: (§1)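 Foliar spray test: emulsion formulation diluted in water to a set application rate, sprayed onto 14-day-old plants raised in diluvial soil at 25° C to 30° C under glass. Both herbicidal effect and crop effect rated visually three weeks later.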

Italian ryegrass = assay: Test Example 4: herbicidal effect by soil treatment (Table 19, symbol K); assay type: in vivo, Italian ryegrass (Lolium multiflorum)
Method in brief: (§2)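 Step 1: sow seeds in sterilized diluvial soil, cover ~1.5 cm. Step 2: spray diluted emulsion onto soil surface at predetermined rate. Step 3: greenhouse, 25–30° C, three weeks. Step 4: grade effect on each plant by earlier criteria.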

late watergrass [3] = assay: Test Example 1: herbicidal activity, application before weed generation under submerged conditions (Table 16, symbol A); assay type: in vivo, late watergrass (Echinochloa oryzicola)
Method in brief: (§3)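 Alluvial soil was flooded to 4 cm depth, weed seeds were sown mixed and 2.5-leaf rice seedlings were transplanted. On sowing day, the compound's emulsion, diluted in water to a set dose, was applied to the water surface. Plants grew at 25–30 °C and were scored 0–5 after three weeks.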

chickweed [4] = assay: Test Example 4: herbicidal effect by soil treatment (Table 19, symbol P); assay type: in vivo, common chickweed (Stellaria media)
Method in brief: as §2

late watergrass [5] = assay: Test Example 2: herbicidal activity, application during weed generation under submerged conditions (Table 17, symbol A); assay type: in vivo, late watergrass (Echinochloa oryzicola); conditions: application during weed generation, submerged conditions
Method in brief: (§4)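 Alluvial soil in Wagner pots was flooded to 4 cm depth and sown with the three weeds together; pots were kept in a greenhouse at 25° C. to 30° C. At the one to two leaf stage, an emulsion formulation diluted in water to a set rate went onto the water surface; scored three weeks later.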

lambsquarters = assay: Test Example 4: herbicidal effect by soil treatment (Table 19, symbol O); assay type: in vivo, lambsquarters (Chenopodium album)
Method in brief: as §2

redroot pigweed = assay: Test Example 5: herbicidal effect by foliage application, plastic box (Table 20, symbol N); assay type: in vivo, redroot pigweed (Amaranthus retroflexus); conditions: for N: redroot pigweed, herbicidal effect grade: foliage application, three weeks after application
Method in brief: as §1

oval-leafed pondweed = assay: Test Example 2: herbicidal activity, application during weed generation under submerged conditions (Table 17, symbol C); assay type: in vivo, oval-leafed pondweed (Monochoria vaginalis); conditions: application during weed generation, submerged conditions
Method in brief: as §4

persian speedwell [6] = assay: Test Example 4: herbicidal effect by soil treatment (Table 19, symbol R); assay type: in vivo, Persian speedwell (Veronica persica)
Method in brief: as §2

windgrass [7] = assay: Test Example 5: herbicidal effect by foliage application, plastic box (Table 20, symbol L); assay type: in vivo, windgrass (Apera spica-venti); conditions: for L: windgrass, herbicidal effect grade: foliage application, three weeks after application
Method in brief: as §1

velvetleaf = assay: Test Example 4: herbicidal effect by soil treatment (Table 19, symbol M); assay type: in vivo, velvetleaf (Abutilon theophrasti)
Method in brief: as §2

green foxtail = assay: Test Example 5: herbicidal effect by foliage application, plastic box (Table 20, symbol G); assay type: in vivo, green foxtail (Setaria viridis); conditions: for G: green foxtail, herbicidal effect grade: foliage application, three weeks after application
Method in brief: as §1

barnyard grass [8] = assay: Test Example 4: herbicidal effect by soil treatment (Table 19, symbol H); assay type: in vivo, barnyard grass (Echinochloa crus-galli)
Method in brief: as §2

windgrass [9] = assay: Test Example 4: herbicidal effect by soil treatment (Table 19, symbol L); assay type: in vivo, windgrass (Apera spica-venti)
Method in brief: as §2

Japanese bulrush = assay: Test Example 1: herbicidal activity, application before weed generation under submerged conditions (Table 16, symbol B); assay type: in vivo, Japanese bulrush (Schoenoplectus juncoides)
Method in brief: as §3

persian speedwell [10] = assay: Test Example 5: herbicidal effect by foliage application, plastic box (Table 20, symbol R); assay type: in vivo, Persian speedwell (Veronica persica); conditions: for R: persian speedwell, herbicidal effect grade: foliage application, three weeks after application
Method in brief: as §1

[11] = 320 g/ha, foliage application after 14-day growth, evaluated three weeks after application
[12] = amount of applied herbicide 320 g/ha
[13] = amount of applied herbicide 320 g/ha, foliage application after 14-day growth, evaluated three weeks after application
[14] = amount of applied herbicide 310 g/ha

## CCCOc1ccc(-c2sc3c(F)cccc3c2-c2c(OC(=O)CCC)c(C)nn(C)c2=O)cc1 [4-010]
Barnyard grass [1]; 320 g/ha
  herbicidal effect on barnyard grass (H): 5 (Herbicidal rate of 90% or more (almost completely withered))
Chickweed [2]; [11]
  herbicidal effect on P: chickweed (evaluation grade 0-5): 5 (Herbicidal rate of 90% or more (almost completely withered))
Italian ryegrass; [12]
  Herbicidal effect by soil treatment, K: Italian ryegrass: 2 (Herbicidal rate of 20% or more and less than 40%)
Late watergrass [3]; [12]
  Herbicidal effect, A: late watergrass: 3 (Herbicidal rate of 40% or more and less than 70%)
Chickweed [4]; [12]
  Herbicidal effect by soil treatment, P: chickweed: 3 (Herbicidal rate of 40% or more and less than 70%)
Late watergrass [5]; AAH 320 g/ha
  herbicidal effect rating, A: late watergrass: 4 (Herbicidal rate of 70% or more and less than 90%)
lambsquarters; [12]
  Herbicidal effect by soil treatment, O: lambsquarters: 3 (Herbicidal rate of 40% or more and less than 70%)
Redroot pigweed; [11]
  herbicidal effect on N: redroot pigweed (evaluation grade 0-5): 5 (Herbicidal rate of 90% or more (almost completely withered))
oval-leafed pondweed; AAH 320 g/ha
  herbicidal effect rating, C: oval-leafed pondweed: 3 (Herbicidal rate of 40% or more and less than 70%)
Persian speedwell [6]; [12]
  Herbicidal effect by soil treatment, R: persian speedwell: 3 (Herbicidal rate of 40% or more and less than 70%)
Windgrass [7]; [11]
  herbicidal effect on L: windgrass (evaluation grade 0-5): 0 (Herbicidal rate of 5% or less (almost no effect))
velvetleaf; [12]
  Herbicidal effect by soil treatment, M: velvetleaf: 0 (Herbicidal rate of 5% or less (almost no effect))
Green foxtail; [11]
  herbicidal effect on G: green foxtail (evaluation grade 0-5): 3 (Herbicidal rate of 40% or more and less than 70%)
Barnyard grass [8]; [12]
  Herbicidal effect by soil treatment, H: barnyard grass: 0 (Herbicidal rate of 5% or less (almost no effect))
Windgrass [9]; [12]
  Herbicidal effect by soil treatment, L: windgrass: 0 (Herbicidal rate of 5% or less (almost no effect))
Japanese bulrush; [12]
  Herbicidal effect, B: Japanese bulrush: 0 (Herbicidal rate of 5% or less (almost no effect))
Persian speedwell [10]; [11]
  herbicidal effect on R: persian speedwell (evaluation grade 0-5): 5 (Herbicidal rate of 90% or more (almost completely withered))

## Cc1nn(C)c(=O)c(-c2c(-c3ccc(Cl)cc3)sc3c(C)cccc23)c1O [4-102]
Barnyard grass [1]; 320 g/ha
  herbicidal effect on barnyard grass (H): 1 (Herbicidal rate of 5% or more and less than 20%)
Chickweed [2]; [13]
  Herbicidal effect by foliage application, P: chickweed: 5 (Herbicidal rate of 90% or more (almost completely withered))
Italian ryegrass; [12]
  Herbicidal effect by soil treatment, K: Italian ryegrass: 3 (Herbicidal rate of 40% or more and less than 70%)
Late watergrass [3]; [12]
  Herbicidal effect, A: late watergrass: 4 (Herbicidal rate of 70% or more and less than 90%)
Chickweed [4]; [12]
  Herbicidal effect by soil treatment, P: chickweed: 0 (Herbicidal rate of 5% or less (almost no effect))
Late watergrass [5]; AAH 320 g/ha
  herbicidal effect rating, A: late watergrass: 2 (Herbicidal rate of 20% or more and less than 40%)
lambsquarters; [12]
  Herbicidal effect by soil treatment, O: lambsquarters: 3 (Herbicidal rate of 40% or more and less than 70%)
Redroot pigweed; [13]
  Herbicidal effect by foliage application, N: redroot pigweed: 5 (Herbicidal rate of 90% or more (almost completely withered))
oval-leafed pondweed; AAH 320 g/ha
  herbicidal effect rating, C: oval-leafed pondweed: 0 (Herbicidal rate of 5% or less (almost no effect))
Persian speedwell [6]; [12]
  Herbicidal effect by soil treatment, R: persian speedwell: 0 (Herbicidal rate of 5% or less (almost no effect))
Windgrass [7]; [13]
  Herbicidal effect by foliage application, L: windgrass: 0 (Herbicidal rate of 5% or less (almost no effect))
velvetleaf; [12]
  Herbicidal effect by soil treatment, M: velvetleaf: 2 (Herbicidal rate of 20% or more and less than 40%)
Green foxtail; [13]
  Herbicidal effect by foliage application, G: green foxtail: 0 (Herbicidal rate of 5% or less (almost no effect))
Barnyard grass [8]; [12]
  Herbicidal effect by soil treatment, H: barnyard grass: 0 (Herbicidal rate of 5% or less (almost no effect))
Windgrass [9]; [12]
  Herbicidal effect by soil treatment, L: windgrass: 0 (Herbicidal rate of 5% or less (almost no effect))
Japanese bulrush; [12]
  Herbicidal effect, B: Japanese bulrush: 0 (Herbicidal rate of 5% or less (almost no effect))
Persian speedwell [10]; [13]
  Herbicidal effect by foliage application, R: persian speedwell: 5 (Herbicidal rate of 90% or more (almost completely withered))

## CCCC(=O)Oc1c(C)nn(C)c(=O)c1-c1c(-c2ccc(F)cc2OC)sc2cc(F)ccc12 [3-010]
Barnyard grass [1]; [12]
  herbicidal effect on H: barnyard grass: 5 (Herbicidal rate of 90% or more (almost completely withered))
Chickweed [2]; 320 g/ha
  P: chickweed, herbicidal effect grade: 5 (Herbicidal rate of 90% or more (almost completely withered))
Italian ryegrass; [12]
  herbicidal effect, K: Italian ryegrass: 4 (Herbicidal rate of 70% or more and less than 90%)
Late watergrass [3]; [12]
  Herbicidal effect, A: late watergrass: 5 (Herbicidal rate of 90% or more (almost completely withered))
Chickweed [4]; [12]
  herbicidal effect, P: chickweed: 4 (Herbicidal rate of 70% or more and less than 90%)
Late watergrass [5]; AAH 320 g/ha
  herbicidal effect rating, A: late watergrass: 3 (Herbicidal rate of 40% or more and less than 70%)
lambsquarters; [12]
  herbicidal effect, O: lambsquarters: 5 (Herbicidal rate of 90% or more (almost completely withered))
Redroot pigweed; 320 g/ha
  N: redroot pigweed, herbicidal effect grade: 5 (Herbicidal rate of 90% or more (almost completely withered))
oval-leafed pondweed; AAH 320 g/ha
  herbicidal effect rating, C: oval-leafed pondweed: 4 (Herbicidal rate of 70% or more and less than 90%)
Persian speedwell [6]; [12]
  herbicidal effect, R: persian speedwell: 5 (Herbicidal rate of 90% or more (almost completely withered))
Windgrass [7]; 320 g/ha
  L: windgrass, herbicidal effect grade: 5 (Herbicidal rate of 90% or more (almost completely withered))
velvetleaf; [12]
  herbicidal effect, M: velvetleaf: 0 (Herbicidal rate of 5% or less (almost no effect))
Green foxtail; 320 g/ha
  G: green foxtail, herbicidal effect grade: 5 (Herbicidal rate of 90% or more (almost completely withered))
Barnyard grass [8]; [12]
  herbicidal effect, H: barnyard grass: 3 (Herbicidal rate of 40% or more and less than 70%)
Windgrass [9]; [12]
  herbicidal effect, L: windgrass: 4 (Herbicidal rate of 70% or more and less than 90%)
Japanese bulrush; [12]
  Herbicidal effect, B: Japanese bulrush: 4 (Herbicidal rate of 70% or more and less than 90%)
Persian speedwell [10]; 320 g/ha
  R: persian speedwell, herbicidal effect grade: 5 (Herbicidal rate of 90% or more (almost completely withered))

## CCCC(=O)Oc1c(C)nn(C)c(=O)c1-c1c(-c2ccccc2OC)sc2cc(OCC)ccc12 [3-090]
Barnyard grass [1]; 310 g/ha
  herbicidal effect on barnyard grass (H): 5 (Herbicidal rate of 90% or more (almost completely withered))
Chickweed [2]; 310 g/ha
  P: chickweed, herbicidal effect grade: 5 (Herbicidal rate of 90% or more (almost completely withered))
Italian ryegrass; [14]
  K: Italian ryegrass, herbicidal effect grade: 4 (Herbicidal rate of 70% or more and less than 90%)
Late watergrass [3]; [14]
  Herbicidal effect, A: late watergrass: 5 (Herbicidal rate of 90% or more (almost completely withered))
Chickweed [4]; [14]
  P: chickweed, herbicidal effect grade: 4 (Herbicidal rate of 70% or more and less than 90%)
Late watergrass [5]; AAH 310 g/ha
  herbicidal effect rating, A: late watergrass: 4 (Herbicidal rate of 70% or more and less than 90%)
lambsquarters; [14]
  O: lambsquarters, herbicidal effect grade: 4 (Herbicidal rate of 70% or more and less than 90%)
Redroot pigweed; 310 g/ha
  N: redroot pigweed, herbicidal effect grade: 5 (Herbicidal rate of 90% or more (almost completely withered))
oval-leafed pondweed; AAH 310 g/ha
  herbicidal effect rating, C: oval-leafed pondweed: 5 (Herbicidal rate of 90% or more (almost completely withered))
Persian speedwell [6]; [14]
  R: persian speedwell, herbicidal effect grade: 5 (Herbicidal rate of 90% or more (almost completely withered))
Windgrass [7]; 310 g/ha
  L: windgrass, herbicidal effect grade: 5 (Herbicidal rate of 90% or more (almost completely withered))
velvetleaf; [14]
  M: velvetleaf, herbicidal effect grade: 3 (Herbicidal rate of 40% or more and less than 70%)
Green foxtail; 310 g/ha
  G: green foxtail, herbicidal effect grade: 4 (Herbicidal rate of 70% or more and less than 90%)
Barnyard grass [8]; [14]
  H: barnyard grass, herbicidal effect grade: 2 (Herbicidal rate of 20% or more and less than 40%)
Windgrass [9]; [14]
  L: windgrass, herbicidal effect grade: 0 (Herbicidal rate of 5% or less (almost no effect))
Japanese bulrush; [14]
  Herbicidal effect, B: Japanese bulrush: 5 (Herbicidal rate of 90% or more (almost completely withered))
Persian speedwell [10]; 310 g/ha
  R: persian speedwell, herbicidal effect grade: 5 (Herbicidal rate of 90% or more (almost completely withered))
